Test results taken from patent publication US8541029B2, “Article and method for focused delivery of therapeutic and/or diagnostic materials” (Armark Authentication Technologies, LLC, priority 2006, dated 2013).

Assay: Isolated temperature response of component materials to microwave RF
Format: physicochemical
Settings: 130 Watts for 60 seconds; for P1 60 seconds ° F.: initial 68 ° F.
Protocol: The microcells were suspended as an aqueous sample while exposed to microwave RF. Both water and mineral oil were evaluated as a liquid medium to expose microcell samples. 500 milligram samples of each microcell component were dispersed in both water and mineral oil and exposed to 130 watts of microwave RF for 60 seconds to determine the preferred fluid medium to carry out the experiment.
Microwave RF exposure was performed in a Panasonic 1300 Watt Inverter Technology® Microwave Oven Model NN-SN667W at 130 Watts. The oven was retrofitted with all quartz platforms to reduce/eliminate dipole induction heating from standard glass structures. All containment and experimental material other than water or albumen in contact with the experimental samples was microwave transparent. Containment devices such as test tubes, slides, and cover slips were either quartz or microwave transparent plastics. Microwave oven use was limited to less than 90 minutes per test period to reduce/prevent incidental heating of the oven chamber. A 500 milliliter water “reservoir-load” was maintained within the oven chamber to absorb microwave energy and prevent magnetron damage. All tests were run in an environmentally-controlled room at about 65° F. (about 18.3° C.) and 50% RH.

SMILES: CC(=O)Nc1ccc(O)cc1 [Acetaminophen, acetaminophen]
- ΔT ° F. (500 mg in 10 g Mineral Oil): 0 ° F.
- P1 60 seconds ° F. (500 mg in 10 g Mineral Oil): 68 ° F.
- ΔT ° F. (500 mg in 10 g Water): 22 ° F.
- P1 60 seconds ° F. (500 mg in 10 g Water): 90 ° F.
